{"source": "patent US20260337153A1", "about": "“IONIZABLE AMINE LIPIDS” (Intellia Therapeutics, Inc., priority 2023, published 2026)", "test_system": "rat TTR", "assay": "Serum TTR level after LNP delivery (Rat Prealbumin (Transthyretin) ELISA)", "type": "in vivo, rat (Sprague-Dawley)", "settings": "LNP with PEG2K-DMG", "procedure": "Sprague-Dawley female rats, ranging from 6-10 weeks of age were used in each study. Animals were weighed and dosed based on individual body weight measured the morning of dosing. LNPs were dosed via the lateral tail vein in a volume of 2 mL per kilogram of animal body weight. The animals were periodically observed for adverse effects for at least 24 hours post dose.\nFor studies measuring in vivo editing in liver, Sprague-Dawley female rats were dosed at 0.1 mpk or 0.03 mpk, unless otherwise noted. Animals were euthanized at 6 or 7 days by carbon dioxide asphyxiation and a heart clip or by ex sanguination via cardiac puncture under isoflourane anesthesia. Blood was collected into serum separator tubes. Liver tissue was collected. Genomic DNA was isolated from the liver tissue for editing measurement by Next-Generation Sequencing (NGS).\nBlood was collected and the serum was isolated as indicated. The total rat TTR serum levels were determined using a Rat Prealbumin (Transthyretin) ELISA Kit (Aviva Systems Biology, Cat. #OKIA00159). Briefly, sera were serial diluted with kit sample diluent to a final dilution of 10,000-fold. This diluted sample was then added to the ELISA plates and the assay was then carried out according to manufacturer's protocol.\nIn vivo editing efficiency for materials delivered with formulations including various amine lipid (or ionizable lipid) compounds in Experiments 1 through 14 as described in Tables 3 and 4 was assessed. Editing was measured using G000534 (SEQ ID NO: 5) which targets the rat TTR gene. Lipids described above were assessed for efficacy through in vivo editing experiments. LNPs were formulated at a 1:2 w/w ratio of sgRNA (SEQ ID NO: 5) and Cas9 mRNA (SEQ ID NO: 3). In Experiments 1 through 13, lipid components of the LNP are formulated in a molar ratio of 50% ionizable lipid, 38% cholesterol, 9% DSPC, and 3% PEG2K-DMG. In Experiment 14, lipid components of the LNP are formulated in a molar ratio of 50% ionizable lipid, 38% cholesterol, 9% DSPC, and 3% C13 Ether. The final LNPs used in different in vivo editing experiments were characterized to determine the encapsulation efficiency (% E), polydispersity index (PDI), and average particle size (Z-avg and number mean) according to the analytical methods provided above. The pKa values of each of the following ionizable lipids were also measured to be in the range of about 5.8 to about 7.6.\nTSS was used as a vehicle-only negative control. The data are illustrated in FIGS. 1A through 14.", "data": [{"smiles": "CCCCCCCCC(CCCCCCCC)OC(=O)CCCC(=O)OCC(COC(=O)CCCC(=O)OC(CCCCCCCC)CCCCCCCC)COC(=O)OCCCN(CC)CC", "note": "[Compound 2, O,O′-(2-((((3-(diethylamino)propoxy)carbonyl)oxy)methyl)propane-1,3-diyl) di(heptadecan-9-yl) diglutarate]", "values": [{"measurement": "% TSS (serum TTR relative to vehicle)", "setting": "Experiment 2, 0.1 mpk", "result": 17, "unit": "%"}, {"measurement": "Serum TTR", "setting": "Experiment 2, 0.1 mpk", "result": 238.5, "unit": "µg/mL"}]}, {"smiles": "CCCCCCCCC(CCCCCCCC)OC(=O)CCCCCC(=O)OCC(COC(=O)CCCCCC(=O)OC(CCCCCCCC)CCCCCCCC)COC(=O)OCCCN(CC)CC", "note": "[Compound 3, O′1,O1-(2-((((3-(diethylamino)propoxy)carbonyl)oxy)methyl)propane-1,3-diyl) 7,7′-di(heptadecan-9-yl) di(heptanedioate)]", "values": [{"measurement": "% TSS (serum TTR relative to vehicle)", "setting": "Experiment 2, 0.1 mpk", "result": 30, "unit": "%"}, {"measurement": "Serum TTR", "setting": "Experiment 2, 0.1 mpk", "result": 414.5, "unit": "µg/mL"}]}, {"smiles": "CCCCC/C=C\\C/C=C\\CCCCCCCC(=O)OCC(COC(=O)CCCCCC(=O)OCC(CCCC)CCCCCC)COC(=O)OCCCN(CC)CC", "note": "(stereo not drawn) [Compound 4, 1-(2-butyloctyl) 7-(3-(((3-(diethylamino)propoxy)carbonyl)oxy)-2-((((9Z,12Z)-octadeca-9,12-dienoyl)oxy)methyl)propyl) heptanedioate]", "values": [{"measurement": "% TSS (serum TTR relative to vehicle)", "setting": "Experiment 2, 0.1 mpk", "result": 46, "unit": "%"}, {"measurement": "Serum TTR", "setting": "Experiment 2, 0.1 mpk", "result": 647.4, "unit": "µg/mL"}]}, {"smiles": "CCCCCCC(CCCC)COC(=O)CCCCCC(=O)OCC(COC(=O)CCCCCC(=O)OCC(CCCC)CCCCCC)COC(=O)OCCCN(CC)CC", "note": "(stereo not drawn) [Compound 5, 7,7′-bis(2-butyloctyl) O′1,O1-(2-((((3-(diethylamino)propoxy)carbonyl)oxy)methyl)propane-1,3-diyl) di(heptanedioate)]", "values": [{"measurement": "% TSS (serum TTR relative to vehicle)", "setting": "Experiment 2, 0.1 mpk", "result": 25, "unit": "%"}, {"measurement": "Serum TTR", "setting": "Experiment 2, 0.1 mpk", "result": 346.5, "unit": "µg/mL"}]}, {"smiles": "CCCCC/C=C\\C/C=C\\CCCCCCCC(=O)OCC(CCCCCCCCC(=O)OC(CCCCCCCC)CCCCCCCCC)COC(=O)CCC(CCCCCCCC)OC(=O)NCCN(C)CC", "note": "(stereo not drawn) [Compound 24, 3-methyl-15-(9-(octadecan-9-yloxy)-9-oxononyl)-9-octyl-7,12-dioxo-8,13-dioxa-3,6-diazahexadecan-16-yl (9Z,12Z)-octadeca-9,12-dienoate]", "values": [{"measurement": "% TSS (serum TTR relative to vehicle)", "setting": "Experiment 5, 0.1 mpk", "result": 95, "unit": "%"}, {"measurement": "Serum TTR", "setting": "Experiment 5, 0.1 mpk", "result": 1352.4, "unit": "µg/mL"}]}, {"smiles": "CCCCC/C=C\\C/C=C\\CCCCCCCC(=O)OCC(CCCCCCCCC(=O)OC(CCCCCCCC)CCCCCCCCC)COC(=O)CCC(CCCCCCCC)OC(=O)NCCN1CCCC1", "note": "(stereo not drawn) [Compound 25, 11-(octadecan-9-yloxy)-11-oxo-2-(((4-(((2-(pyrrolidin-1-yl)ethyl)carbamoyl)oxy)dodecanoyl)oxy)methyl)undecyl (9Z,12Z)-octadeca-9,12-dienoate]", "values": [{"measurement": "% TSS (serum TTR relative to vehicle)", "setting": "Experiment 5, 0.1 mpk", "result": 70, "unit": "%"}, {"measurement": "Serum TTR", "setting": "Experiment 5, 0.1 mpk", "result": 998.3, "unit": "µg/mL"}]}, {"smiles": "CCCCC/C=C\\C/C=C\\CCCCCCCC(=O)OCC(CCCCCCCCC(=O)OC(CCCCCCCC)CCCCCCCCC)COC(=O)CCC(CCCC)OC(=O)NCCN(C)CC", "note": "(stereo not drawn) [Compound 26, 9-butyl-3-methyl-15-(9-(octadecan-9-yloxy)-9-oxononyl)-7,12-dioxo-8,13-dioxa-3,6-diazahexadecan-16-yl (9Z,12Z)-octadeca-9,12-dienoate]", "values": [{"measurement": "% TSS (serum TTR relative to vehicle)", "setting": "Experiment 5, 0.1 mpk", "result": 35, "unit": "%"}, {"measurement": "Serum TTR", "setting": "Experiment 5, 0.1 mpk", "result": 502.9, "unit": "µg/mL"}]}, {"smiles": "CCCCC/C=C\\C/C=C\\CCCCCCCC(=O)OCC(CCCCCCCCC(=O)OC(CCCCCCCC)CCCCCCCCC)COC(=O)CCC(CCCC)OC(=O)NCCN1CCCC1", "note": "(stereo not drawn) [Compound 27, 11-(octadecan-9-yloxy)-11-oxo-2-(((4-(((2-(pyrrolidin-1-yl)ethyl)carbamoyl)oxy)octanoyl)oxy)methyl)undecyl (9Z,12Z)-octadeca-9,12-dienoate]", "values": [{"measurement": "% TSS (serum TTR relative to vehicle)", "setting": "Experiment 5, 0.1 mpk", "result": 21, "unit": "%"}, {"measurement": "Serum TTR", "setting": "Experiment 5, 0.1 mpk", "result": 294.3, "unit": "µg/mL"}]}, {"smiles": "CCCCC/C=C\\C/C=C\\CCCCCCCC(=O)OCC(COC(=O)CCC(OCCCCCCCC)OCCCCCCCC)COC(=O)OCCCN(CC)CC", "note": "(stereo not drawn) [Compound 53]", "values": [{"measurement": "% TSS (serum TTR relative to vehicle)", "setting": "Experiment 1, 0.1 mpk", "result": 48, "unit": "%"}, {"measurement": "Serum TTR", "setting": "Experiment 1, 0.1 mpk", "result": 519.9, "unit": "µg/mL"}, {"measurement": "% TSS (serum TTR relative to vehicle)", "setting": "Experiment 2, 0.1 mpk", "result": 24, "unit": "%"}, {"measurement": "Serum TTR", "setting": "Experiment 2, 0.1 mpk", "result": 341.9, "unit": "µg/mL"}, {"measurement": "% TSS (serum TTR relative to vehicle)", "setting": "Experiment 5, 0.1 mpk", "result": 44, "unit": "%"}, {"measurement": "Serum TTR", "setting": "Experiment 5, 0.1 mpk", "result": 624.1, "unit": "µg/mL"}]}, {"smiles": "CCCCC/C=C\\C/C=C\\CCCCCCCC(=O)OCC(COC(=O)CCC(OCCCCCCCC)OCCCCCCCC)COC(=O)NCCN(CC)CC", "note": "(stereo not drawn) [Compound 54]", "values": [{"measurement": "% TSS (serum TTR relative to vehicle)", "setting": "Experiment 1, 0.1 mpk", "result": 48, "unit": "%"}, {"measurement": "Serum TTR", "setting": "Experiment 1, 0.1 mpk", "result": 512.9, "unit": "µg/mL"}]}, {"smiles": "CCCCC/C=C\\C/C=C\\CCCCCCCC(=O)OCC(COC(=O)CCCC(=O)OC(CCCCCCCC)CCCCCCCC)COC(=O)OCCCN(CC)CC", "note": "(stereo not drawn) [Compound 56]", "values": [{"measurement": "% TSS (serum TTR relative to vehicle)", "setting": "Experiment 2, 0.1 mpk", "result": 28, "unit": "%"}, {"measurement": "Serum TTR", "setting": "Experiment 2, 0.1 mpk", "result": 390.1, "unit": "µg/mL"}]}, {"smiles": "CCCCC/C=C\\C/C=C\\CCCCCCCC(=O)OCC(COC(=O)CCCCCC(=O)OC(CCCCCCCC)CCCCCCCC)COC(=O)OCCCN(CC)CC", "note": "(stereo not drawn) [Compound 57]", "values": [{"measurement": "% TSS (serum TTR relative to vehicle)", "setting": "Experiment 2, 0.1 mpk", "result": 30, "unit": "%"}, {"measurement": "Serum TTR", "setting": "Experiment 2, 0.1 mpk", "result": 412.3, "unit": "µg/mL"}]}, {"smiles": "CCCCC/C=C\\C/C=C\\CCCCCCCC(=O)OCC(COC(=O)CCCC(=O)OC(CCCCCCCC)CCCCCCCC)COC(=O)NCCN(CC)CC", "note": "(stereo not drawn) [Compound 58]", "values": [{"measurement": "% TSS (serum TTR relative to vehicle)", "setting": "Experiment 1, 0.1 mpk", "result": 38, "unit": "%"}, {"measurement": "Serum TTR", "setting": "Experiment 1, 0.1 mpk", "result": 406.3, "unit": "µg/mL"}, {"measurement": "% TSS (serum TTR relative to vehicle)", "setting": "Experiment 2, 0.1 mpk", "result": 14, "unit": "%"}, {"measurement": "Serum TTR", "setting": "Experiment 2, 0.1 mpk", "result": 198.8, "unit": "µg/mL"}]}, {"smiles": "CCCCC/C=C\\C/C=C\\CCCCCCCC(=O)OCC(COC(=O)CCCCCC(=O)OC(CCCCCCCC)CCCCCCCC)COC(=O)NCCN(CC)CC", "note": "(stereo not drawn) [Compound 59]", "values": [{"measurement": "% TSS (serum TTR relative to vehicle)", "setting": "Experiment 1, 0.1 mpk", "result": 50, "unit": "%"}, {"measurement": "Serum TTR", "setting": "Experiment 1, 0.1 mpk", "result": 533.0, "unit": "µg/mL"}, {"measurement": "% TSS (serum TTR relative to vehicle)", "setting": "Experiment 2, 0.1 mpk", "result": 20, "unit": "%"}, {"measurement": "Serum TTR", "setting": "Experiment 2, 0.1 mpk", "result": 276.6, "unit": "µg/mL"}]}]}
